{"source": "patent US10787452B2", "about": "(Vertex Pharmaceuticals Incorporated, priority 2012, dated 2020)", "tested_on": "HCT116 colorectal cancer cells", "experiment": "Cisplatin sensitization assay (96 h cell viability MTS);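 also: compound concentration needed to lower the Cisplatin-alone IC50 by a set fold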", "type": "cell-based", "conditions": "96 h MTS, compound plus Cisplatin", "outline": "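Cisplatin and compound are dosed at the same time, both serially diluted 2-fold from 10 μM final across a full matrix. Plates sit at 37° C in 5% CO2 for 96 h before MTS addition.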"}
{"smiles": "CN1CCN(CC2CCN(c3c(F)cncc3NC(=O)c3c(N)nn4cc(C5(C#N)CC5)cnc34)CC2)CC1", "note": "[I-N-192, 2-amino-6-(1-cyanocyclopropyl)-N-(5-fluoro-4-(4-((4-methylpiperazin-1-yl)methyl)piperidin-1-yl)pyridin-3-yl)pyrazolo[1,5-a]pyrimidine-3-carboxamide]", "values": [{"measurement": "Cisplatin Sensitization Assay", "result": "+++ (Compounds with a Cisplatin sensitization value of <0.02 μM are marked with “+++.”)"}]}
{"smiles": "CN1CCN(CC2CCN(c3c(F)cncc3NC(=O)c3c(N)nn4cc(F)cnc34)CC2)C(=O)C1", "note": "[I-N-193, 2-amino-6-fluoro-N-(5-fluoro-4-(4-((4-methyl-2-oxopiperazin-1-yl)methyl)piperidin-1-yl)pyridin-3-yl)pyrazolo[1,5-a]pyrimidine-3-carboxamide]", "values": [{"measurement": "Cisplatin Sensitization Assay", "result": "+++ (Compounds with a Cisplatin sensitization value of <0.02 μM are marked with “+++.”)"}]}
{"smiles": "CN1CC(C(=O)N2CCN(c3c(F)cncc3NC(=O)c3c(N)nn4cc(F)cnc34)CC2)C1", "note": "[I-N-194]", "values": [{"measurement": "Cisplatin Sensitization Assay", "result": "+++ (Compounds with a Cisplatin sensitization value of <0.02 μM are marked with “+++.”)"}]}
{"smiles": "Nc1nn2cc(F)cnc2c1C(=O)Nc1cnccc1N1CCN(S(=O)(=O)C2COC2)CC1", "note": "[I-N-195, 2-amino-6-fluoro-N-(4-(4-(oxetan-3-ylsulfonyl)piperazin-1-yl)pyridin-3-yl)pyrazolo[1,5-a]pyrimidine-3-carboxamide]", "values": [{"measurement": "Cisplatin Sensitization Assay", "result": "+++ (Compounds with a Cisplatin sensitization value of <0.02 μM are marked with “+++.”)"}]}
{"smiles": "Nc1nn2cc(F)cnc2c1C(=O)Nc1cnccc1N1CCC(S(=O)(=O)N2CCN3CCC2CC3)CC1", "note": "[I-N-196, N-(4-(4-(1,4-diazabicyclo[3.2.2]nonan-4-ylsulfonyl)piperidin-1-yl)pyridin-3-yl)-2-amino-6-fluoropyrazolo[1,5-a]pyrimidine-3-carboxamide]", "values": [{"measurement": "Cisplatin Sensitization Assay", "result": "+++ (Compounds with a Cisplatin sensitization value of <0.02 μM are marked with “+++.”)"}]}
{"smiles": "Nc1nn2cc(F)cnc2c1C(=O)Nc1cnccc1N1CCC(CN2CCC(F)(F)C2)CC1", "note": "[I-N-197, 2-amino-N-(4-(4-((3,3-difluoropyrrolidin-1-yl)methyl)piperidin-1-yl)pyridin-3-yl)-6-fluoropyrazolo[1,5-a]pyrimidine-3-carboxamide]", "values": [{"measurement": "Cisplatin Sensitization Assay", "result": "+++ (Compounds with a Cisplatin sensitization value of <0.02 μM are marked with “+++.”)"}]}
{"smiles": "CN1CCC[C@H]1C(=O)N1CCN(c2ccncc2NC(=O)c2c(N)nn3cc(F)cnc23)CC1", "note": "[I-N-198, (S)-2-amino-6-fluoro-N-(4-(4-(1-methylpyrrolidine-2-carbonyl)piperazin-1-yl)pyridin-3-yl)pyrazolo[1,5-a]pyrimidine-3-carboxamide]", "values": [{"measurement": "Cisplatin Sensitization Assay", "result": "++ (Compounds with a Cisplatin sensitization value >0.02 μM but <0.2 μM are marked with “++.”)"}]}
{"smiles": "CN1CCC[C@@H]1C(=O)N1CCN(c2ccncc2NC(=O)c2c(N)nn3cc(F)cnc23)CC1", "note": "[I-N-199, (R)-2-amino-6-fluoro-N-(4-(4-(1-methylpyrrolidine-2-carbonyl)piperazin-1-yl)pyridin-3-yl)pyrazolo[1,5-a]pyrimidine-3-carboxamide]", "values": [{"measurement": "Cisplatin Sensitization Assay", "result": "+++ (Compounds with a Cisplatin sensitization value of <0.02 μM are marked with “+++.”)"}]}
{"smiles": "Nc1nn2cc(F)cnc2c1C(=O)Nc1cnccc1N1CCC(S(=O)(=O)C2COC2)CC1", "note": "[I-N-200, 2-amino-6-fluoro-N-(4-(4-(oxetan-3-ylsulfonyl)piperidin-1-yl)pyridin-3-yl)pyrazolo[1,5-a]pyrimidine-3-carboxamide]", "values": [{"measurement": "Cisplatin Sensitization Assay", "result": "+++ (Compounds with a Cisplatin sensitization value of <0.02 μM are marked with “+++.”)"}]}
{"smiles": "Nc1nn2cc(F)cnc2c1C(=O)Nc1cncc(F)c1N1CCN(S(=O)(=O)C2COC2)CC1", "note": "[I-N-201]", "values": [{"measurement": "Cisplatin Sensitization Assay", "result": "+++ (Compounds with a Cisplatin sensitization value of <0.02 μM are marked with “+++.”)"}]}
{"smiles": "Nc1nn2cc(F)cnc2c1C(=O)Nc1cnccc1-n1ccnc1C1CC1", "note": "[I-N-202, 2-amino-N-(4-(2-cyclopropyl-1H-imidazol-1-yl)pyridin-3-yl)-6-fluoropyrazolo[1,5-a]pyrimidine-3-carboxamide]", "values": [{"measurement": "Cisplatin Sensitization Assay", "result": "+++ (Compounds with a Cisplatin sensitization value of <0.02 μM are marked with “+++.”)"}]}
{"smiles": "Nc1nn2cc(F)cnc2c1C(=O)Nc1cncc(F)c1N1CCN(C(=O)C2CC3CCCCN3C2)CC1", "note": "(centres unmarked) [I-N-203, 2-amino-6-fluoro-N-(5-fluoro-4-(4-(octahydroindolizine-2-carbonyl)piperazin-1-yl)pyridin-3-yl)pyrazolo[1,5-a]pyrimidine-3-carboxamide]", "values": [{"measurement": "Cisplatin Sensitization Assay", "result": "+++ (Compounds with a Cisplatin sensitization value of <0.02 μM are marked with “+++.”)"}]}
{"smiles": "CC(C)N1CCCC1C(=O)N1CCN(c2c(F)cncc2NC(=O)c2c(N)nn3cc(F)cnc23)CC1", "note": "(centres unmarked) [I-N-205, 2-amino-6-fluoro-N-(5-fluoro-4-(4-(1-isopropylpyrrolidine-2-carbonyl)piperazin-1-yl)pyridin-3-yl)pyrazolo[1,5-a]pyrimidine-3-carboxamide]", "values": [{"measurement": "Cisplatin Sensitization Assay", "result": "++ (Compounds with a Cisplatin sensitization value >0.02 μM but <0.2 μM are marked with “++.”)"}]}
{"smiles": "CC(C)N1CCC(C(=O)N2CCN(c3c(F)cncc3NC(=O)c3c(N)nn4cc(F)cnc34)CC2)C1", "note": "(centres unmarked) [I-N-206, 2-amino-6-fluoro-N-(5-fluoro-4-(4-(1-isopropylpyrrolidine-3-carbonyl)piperazin-1-yl)pyridin-3-yl)pyrazolo[1,5-a]pyrimidine-3-carboxamide]", "values": [{"measurement": "Cisplatin Sensitization Assay", "result": "+++ (Compounds with a Cisplatin sensitization value of <0.02 μM are marked with “+++.”)"}]}
{"smiles": "COCCS(=O)(=O)C1CCN(c2ccncc2NC(=O)c2c(N)nn3cc(F)cnc23)CC1", "note": "[I-N-208, 2-amino-6-fluoro-N-(4-(4-((2-methoxyethyl)sulfonyl)piperidin-1-yl)pyridin-3-yl)pyrazolo[1,5-a]pyrimidine-3-carboxamide]", "values": [{"measurement": "Cisplatin Sensitization Assay", "result": "+++ (Compounds with a Cisplatin sensitization value of <0.02 μM are marked with “+++.”)"}]}
{"smiles": "CN1CCN(c2ccncc2NC(=O)c2c(N)nn3cc(F)cnc23)CC1=O", "note": "[I-N-209, 2-amino-6-fluoro-N-(4-(4-methyl-3-oxopiperazin-1-yl)pyridin-3-yl)pyrazolo[1,5-a]pyrimidine-3-carboxamide]", "values": [{"measurement": "Cisplatin Sensitization Assay", "result": "+++ (Compounds with a Cisplatin sensitization value of <0.02 μM are marked with “+++.”)"}]}
{"smiles": "Nc1nn2cc(F)cnc2c1C(=O)Nc1cnccc1N1CCS(=O)(=O)CC1", "note": "[I-N-210, 2-amino-N-(4-(1,1-dioxidothiomorpholino)pyridin-3-yl)-6-fluoropyrazolo[1,5-a]pyrimidine-3-carboxamide]", "values": [{"measurement": "Cisplatin Sensitization Assay", "result": "+++ (Compounds with a Cisplatin sensitization value of <0.02 μM are marked with “+++.”)"}]}
{"smiles": "Nc1nn2cc(F)cnc2c1C(=O)Nc1cncc(F)c1N1CCN(C(=O)C2CCN(C3COC3)CC2)CC1", "note": "[I-N-211, 2-amino-6-fluoro-N-(5-fluoro-4-(4-(1-(oxetan-3-yl)piperidine-4-carbonyl)piperazin-1-yl)pyridin-3-yl)pyrazolo[1,5-a]pyrimidine-3-carboxamide]", "values": [{"measurement": "Cisplatin Sensitization Assay", "result": "++ (Compounds with a Cisplatin sensitization value >0.02 μM but <0.2 μM are marked with “++.”)"}]}
{"smiles": "CN1CCN(c2c(F)cncc2NC(=O)c2c(N)nn3cc(F)cnc23)CC1=O", "note": "[I-N-212, 2-amino-6-fluoro-N-(5-fluoro-4-(4-methyl-3-oxopiperazin-1-yl)pyridin-3-yl)pyrazolo[1,5-a]pyrimidine-3-carboxamide]", "values": [{"measurement": "Cisplatin Sensitization Assay", "result": "+++ (Compounds with a Cisplatin sensitization value of <0.02 μM are marked with “+++.”)"}]}
{"smiles": "Nc1nn2cc(F)cnc2c1C(=O)Nc1cncc(F)c1N1CCC(CN2CCCC2=O)CC1", "note": "[I-N-213, 2-amino-6-fluoro-N-(5-fluoro-4-(4-((2-oxopyrrolidin-1-yl)methyl)piperidin-1-yl)pyridin-3-yl)pyrazolo[1,5-a]pyrimidine-3-carboxamide]", "values": [{"measurement": "Cisplatin Sensitization Assay", "result": "+++ (Compounds with a Cisplatin sensitization value of <0.02 μM are marked with “+++.”)"}]}
{"smiles": "CN1CCCCC1C(=O)N1CCN(c2c(F)cncc2NC(=O)c2c(N)nn3cc(F)cnc23)CC1", "note": "(centres unmarked) [I-N-214, 2-amino-6-fluoro-N-(5-fluoro-4-(4-(1-methylpiperidine-2-carbonyl)piperazin-1-yl)pyridin-3-yl)pyrazolo[1,5-a]pyrimidine-3-carboxamide]", "values": [{"measurement": "Cisplatin Sensitization Assay", "result": "++ (Compounds with a Cisplatin sensitization value >0.02 μM but <0.2 μM are marked with “++.”)"}]}
{"smiles": "CS(=O)(=O)CC1CCN(c2ccncc2NC(=O)c2c(N)nn3cc(F)cnc23)CC1", "note": "[I-N-215, 2-amino-6-fluoro-N-(4-(4-((methylsulfonyl)methyl)piperidin-1-yl)pyridin-3-yl)pyrazolo[1,5-a]pyrimidine-3-carboxamide]", "values": [{"measurement": "Cisplatin Sensitization Assay", "result": "+++ (Compounds with a Cisplatin sensitization value of <0.02 μM are marked with “+++.”)"}]}
{"smiles": "CN1CC2(CCN(c3ccncc3NC(=O)c3c(N)nn4cc(F)cnc34)CC2)OC1=O", "note": "[I-N-216, 2-amino-6-fluoro-N-(4-(3-methyl-2-oxo-1-oxa-3,8-diazaspiro[4.5]decan-8-yl)pyridin-3-yl)pyrazolo[1,5-a]pyrimidine-3-carboxamide]", "values": [{"measurement": "Cisplatin Sensitization Assay", "result": "+++ (Compounds with a Cisplatin sensitization value of <0.02 μM are marked with “+++.”)"}]}
{"smiles": "Nc1nn2cc(F)cnc2c1C(=O)Nc1cnccc1N1CCN2C(=O)CC[C@H]2C1", "note": "[I-N-217, (S)-2-amino-6-fluoro-N-(4-(6-oxohexahydropyrrolo[1,2-a]pyrazin-2(1H)-yl)pyridin-3-yl)pyrazolo[1,5-a]pyrimidine-3-carboxamide]", "values": [{"measurement": "Cisplatin Sensitization Assay", "result": "++ (Compounds with a Cisplatin sensitization value >0.02 μM but <0.2 μM are marked with “++.”)"}]}
{"smiles": "Cc1nc(C)n(-c2ccncc2NC(=O)c2c(N)nn3cc(F)cnc23)n1", "note": "[I-N-218, 2-amino-N-(4-(3,5-dimethyl-1H-1,2,4-triazol-1-yl)pyridin-3-yl)-6-fluoropyrazolo[1,5-a]pyrimidine-3-carboxamide]", "values": [{"measurement": "Cisplatin Sensitization Assay", "result": "+ (Compounds with a Cisplatin sensitization value >0.2 μM but <5 μM are marked with “+.”)"}]}
{"smiles": "Nc1nn2cc(F)cnc2c1C(=O)Nc1cnccc1-n1ccnc1C(F)(F)F", "note": "[I-N-219, 2-amino-6-fluoro-N-(4-(2-(trifluoromethyl)-1H-imidazol-1-yl)pyridin-3-yl)pyrazolo[1,5-a]pyrimidine-3-carboxamide]", "values": [{"measurement": "Cisplatin Sensitization Assay", "result": "+++ (Compounds with a Cisplatin sensitization value of <0.02 μM are marked with “+++.”)"}]}
